The values below come from patent US11311012B1, “Bacterial control in fermentation systems” (Clean Chemistry, Inc., priority 2017, dated 2022).

Data set [1] has as its system yeast cells. In kind it is cell-based, Saccharomyes cerevisiae and Schizosaccharomyces pombe.
Data set [2] relates to SRB. In kind it is cell-based, bacteria.
In data set [3] the test system is bacteria population in stationary phase. Type of data set: cell-based.
The test system of data set [4] is APB. In kind it is cell-based, bacteria.
A short description of data set [5]: ORP of oxidant solutions at pH 7. The note with it: 29 mM. In kind it is physicochemical.

Where “and” joins values, the source holds several entries; their conditions need not be identical. Equal values may be shown once.

Turning to `[O][Cl+][O-]` [Chlorine Dioxide, chlorine dioxide], the “Yeast activity vs untreated mash” value in data set [1] is on record as “greater yeast activity”.
In the case of `CCCCCCCCCCCC[N+](C)(C)CCCCCCCCCCCC.[Br-]` [DDAB, didodecyldimethylammonium bromide], in data set [2], the SRB is 5 bottles and 6 bottles. Moreover, in data set [3], the ATP was 185 pg/mL and 291 pg/mL; the “Effectiveness against bacteria in the stationary phase compared with peracetate oxidant” value is given as “less effective”. In addition, the APB in data set [4] is 3 bottles and 4 bottles.
As to `OO` [hydrogen peroxide], in data set [5], the ORP entry is recorded as “about 0.5 V (vs SHE)”.
For `OCl` [hypochlorous acid], in data set [5], the ORP result is given as “over 1.1 V (vs SHE)”.
